Assay results published in ChEMBL document CHEMBL5236564, “An overview of the development of EED inhibitors to disable the PRC2 function” (RSC Med Chem, 2022).
Values belong to the molecule of their own block, whether it stands above or below them. Bridge positions count the residues as written; N and C are the ends. Square brackets hold non-standard residues; d marks the D form. Peptide text beside a SMILES is read from it. ξ: configuration not given here. S5 = C=CCCC[C@](C)(N)C(=O)O; ξIle = CC[C@H](C)C(N)C(=O)O

Legend:
[1] = Inhibition of EED/EZH2 (unknown origin) interaction by fluorescence polarization assay; design: species or system Homo sapiens
[2] = biological target: T1, Polycomb protein EED (Homo sapiens, UniProt O75530); experiment: Displacement of H3K27me3 from EED (unknown origin) by competitive binding assay
Target sequence in this assay (O75530 whole entry): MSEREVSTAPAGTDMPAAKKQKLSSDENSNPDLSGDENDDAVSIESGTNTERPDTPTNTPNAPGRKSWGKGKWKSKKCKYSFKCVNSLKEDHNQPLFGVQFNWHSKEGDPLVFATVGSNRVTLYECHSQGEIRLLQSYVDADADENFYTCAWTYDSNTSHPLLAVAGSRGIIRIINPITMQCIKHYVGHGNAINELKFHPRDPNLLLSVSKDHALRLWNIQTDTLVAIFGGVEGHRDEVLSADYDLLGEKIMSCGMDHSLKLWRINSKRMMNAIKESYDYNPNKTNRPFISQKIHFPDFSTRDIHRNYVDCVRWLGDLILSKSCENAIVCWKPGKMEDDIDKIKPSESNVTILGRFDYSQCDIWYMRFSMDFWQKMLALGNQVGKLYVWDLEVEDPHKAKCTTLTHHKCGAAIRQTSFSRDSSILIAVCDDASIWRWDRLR

[3] = system: KARPAS-422; experiment: Antitumor activity against human KARPAS-422 cells xenografted in mouse assessed as tumor growth inhibition at 100 mg/kg, po administered twice daily for 36 days relative to control; type: functional; details: KARPAS-422, 864 h, time 36 day, read-out: TGI
[4] = system: Pfeiffer; experiment: Antitumor activity against human Pfeiffer cells xenografted in mouse assessed as tumor growth inhibition at 100 mg/kg, po administered twice daily for 36 days relative to control; type: functional; details: 864 h, time 36 day, read-out: TGI
[5] = biological target: T1, Polycomb protein EED; experiment: Binding affinity to C-terminal histidine tagged EED (unknown origin) expressed in Escherichia coli BL21(DE3) incubated for 15 mins by fluorescence polarization analysis
Target sequence in this assay (O75530 whole entry): as above

[6] = Synergistic cell viability against human MLL-AF9 cells by measuring combination index score at 0.3 to 3 uM measured after 7 days in presence of GSK126; type: functional; details: dose 0.3-3 µM; time 7 day
[7] = system: KARPAS-422; experiment: Synergistic cell viability against human KARPAS-422 cells by measuring combination index score at 0.3 to 3 uM measured after 7 days in presence of GSK126; type: functional; details: dose 0.3-3 µM; time 7 day
[8] = biological target: T1, Polycomb protein EED; experiment: Stabilization of EED (unknown origin) assessed as change in melting temperature by thermal shift assay; details: tested as the 2H-labelled form
Target sequence in this assay (O75530 2-441 limits assumed): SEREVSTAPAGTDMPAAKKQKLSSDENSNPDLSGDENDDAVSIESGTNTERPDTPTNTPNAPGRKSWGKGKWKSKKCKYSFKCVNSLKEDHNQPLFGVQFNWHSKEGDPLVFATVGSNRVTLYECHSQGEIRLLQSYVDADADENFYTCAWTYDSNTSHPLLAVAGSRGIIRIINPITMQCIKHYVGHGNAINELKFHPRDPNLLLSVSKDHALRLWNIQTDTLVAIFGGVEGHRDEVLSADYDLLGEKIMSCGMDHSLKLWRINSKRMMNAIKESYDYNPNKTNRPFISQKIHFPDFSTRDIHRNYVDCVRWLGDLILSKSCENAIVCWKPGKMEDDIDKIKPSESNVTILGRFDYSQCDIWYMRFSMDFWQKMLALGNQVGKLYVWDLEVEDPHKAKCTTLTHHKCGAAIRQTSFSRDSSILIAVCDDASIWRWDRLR

[9] = Oral bioavailability in mouse; type: ADME, organism-based; details: in vivo
[10] = Inhibition of human N- terminal 6 his sumo-tagged EED (81 to 441 residues)/EZH2(39 to 63 residues) (unknown origin) interaction expressed in Escherichia coli BL21(DE3) incubated for 2 hrs by fluorescence polarization based competitive assay
[11] = Inhibition of PRC2 (unknown origin) using H3K27me0 as peptide substrate by LC-MS based analysis; design: species or system Homo sapiens
[12] = biological target: EZH2/SUZ12/EED complex (Homo sapiens, UniProt O75530+Q15022+Q15910); experiment: Binding affinity to PRC2 complex of EZH2-EED-SUZ12 (unknown origin) assessed as dissociation constant by isothermal titration calorimetry method; type: protein-complex assay
[13] = system: KARPAS-422; experiment: Synergistic growth inhibition against human KARPAS-422 cells assessed as reduction in cell proliferation by measuring synergistic score at upto 10 uM measured after 6 days in presence of EI1; type: functional; details: time 6 day
[14] = system: KARPAS-422; experiment: Synergistic growth inhibition against human KARPAS-422 cells assessed as reduction in H3K27me3 level by measuring synergistic score upto 10 uM measured after 4 days in presence of EI1; type: functional; details: time 4 day
[15] = system: KARPAS-422; experiment: Antitumor activity against human KARPAS-422 cells xenografted in mouse at 40 mg/kg via oral gavage and mesured after 32 days by caliper method relative to control; type: functional; details: KARPAS-422, 768 h, time 32 day, read-out: TGI
[16] = biological target: EZH2/SUZ12/EED complex (Homo sapiens) (UniProt Q15910+O75530+Q15022)
Description: Stabilization of PRC2 complex of EZH2-EED-SUZ12 (unknown origin) assessed as thermal stability by measuring increase in melting temperature by thermal shift assay

[17] = biological target: T1, Polycomb protein EED; experiment: Binding affinity to his tagged EED (1 to 441 residues) (unknown origin) incubated for 20 mins in presence of biotinylated H3K27me3 peptide (19 to 33 residues) by alphascreen competitive binding assay
Target sequence in this assay (O75530 whole entry): as the sequence (O75530 whole entry) above

EZH2/SUZ12/EED complex (Homo sapiens), sequence (O75530 2-441 partner limits assumed): as the sequence (O75530 2-441 limits assumed) above
EZH2/SUZ12/EED complex (Homo sapiens), sequence (Q15022 whole entry partner, the tested form may be a part): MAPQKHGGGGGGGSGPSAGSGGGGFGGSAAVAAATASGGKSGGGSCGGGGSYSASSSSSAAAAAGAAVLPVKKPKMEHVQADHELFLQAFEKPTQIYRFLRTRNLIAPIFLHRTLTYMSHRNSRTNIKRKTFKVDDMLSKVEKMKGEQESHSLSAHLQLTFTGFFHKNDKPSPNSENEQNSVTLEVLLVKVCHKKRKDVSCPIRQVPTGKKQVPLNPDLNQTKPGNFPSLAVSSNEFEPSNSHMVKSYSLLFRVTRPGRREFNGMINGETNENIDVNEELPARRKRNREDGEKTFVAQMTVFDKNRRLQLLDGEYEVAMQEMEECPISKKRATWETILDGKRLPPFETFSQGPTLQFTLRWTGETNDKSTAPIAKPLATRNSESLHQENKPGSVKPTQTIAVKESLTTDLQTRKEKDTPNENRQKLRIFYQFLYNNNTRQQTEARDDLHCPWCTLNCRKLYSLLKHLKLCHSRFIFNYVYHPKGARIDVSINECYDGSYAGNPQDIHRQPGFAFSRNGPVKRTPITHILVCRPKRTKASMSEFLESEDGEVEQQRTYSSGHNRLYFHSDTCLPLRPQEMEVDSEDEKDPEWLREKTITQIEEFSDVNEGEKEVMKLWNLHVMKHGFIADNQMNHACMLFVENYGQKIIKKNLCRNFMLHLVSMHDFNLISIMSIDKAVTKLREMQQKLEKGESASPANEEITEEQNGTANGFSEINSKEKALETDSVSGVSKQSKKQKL
EZH2/SUZ12/EED complex (Homo sapiens), sequence (Q15910 whole entry, the tested form may be a part): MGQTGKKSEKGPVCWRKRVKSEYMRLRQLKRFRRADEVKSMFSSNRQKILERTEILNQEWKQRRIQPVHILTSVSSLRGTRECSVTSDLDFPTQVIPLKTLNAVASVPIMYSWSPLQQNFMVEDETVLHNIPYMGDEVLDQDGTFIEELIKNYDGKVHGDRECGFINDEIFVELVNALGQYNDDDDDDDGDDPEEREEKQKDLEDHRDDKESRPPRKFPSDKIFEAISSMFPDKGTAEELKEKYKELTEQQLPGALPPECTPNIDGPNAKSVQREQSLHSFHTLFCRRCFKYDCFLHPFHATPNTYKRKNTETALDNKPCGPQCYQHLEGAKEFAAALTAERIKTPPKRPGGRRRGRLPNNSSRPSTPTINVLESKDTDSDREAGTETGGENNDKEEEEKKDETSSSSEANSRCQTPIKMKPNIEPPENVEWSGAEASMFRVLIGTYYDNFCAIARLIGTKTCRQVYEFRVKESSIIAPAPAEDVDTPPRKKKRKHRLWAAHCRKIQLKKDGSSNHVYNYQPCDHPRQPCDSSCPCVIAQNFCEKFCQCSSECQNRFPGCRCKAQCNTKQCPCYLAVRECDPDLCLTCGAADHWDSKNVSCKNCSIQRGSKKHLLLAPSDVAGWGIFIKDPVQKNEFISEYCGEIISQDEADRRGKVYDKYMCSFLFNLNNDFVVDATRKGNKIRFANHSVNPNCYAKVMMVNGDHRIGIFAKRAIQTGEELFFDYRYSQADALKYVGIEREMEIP
EZH2/SUZ12/EED complex, sequence (Q15910 whole entry): as the sequence (Q15910 whole entry, the tested form may be a part) above
EZH2/SUZ12/EED complex, sequence (O75530 whole entry): as the sequence (O75530 whole entry) above
EZH2/SUZ12/EED complex, sequence (Q15022 whole entry): as the sequence (Q15022 whole entry partner, the tested form may be a part) above

SMILES: CCCCC1C(=O)N(c2ccccc2)N(c2ccc(O)cc2)C1=O (stereo not given) [OXYPHENBUTAZONE ANHYDROUS]
IC50 [1]: 229 µM

SMILES: [2H]C([2H])(Nc1ncc(-c2cccnc2C)c(=O)[nH]1)c1c(F)ccc2c1CCO2
IC50 [2]: 4.5 nM
inhibition in vivo at 100 mg/kg [3]: 85%
inhibition in vivo at 100 mg/kg [4]: 96%

SMILES: CC[C@H](C)C1NC(=O)[C@H](CCCCN)NC(=O)[C@@](C)(NC(=O)[C@H](CCCNC(=N)N)NC(=O)[C@H](CC(N)=O)NC(=O)[C@H](CO)NC(=O)[C@H](CO)NC(=O)[C@H](Cc2ccccc2)NC(C)=O)CCC/C=C/CCC[C@@](C)(C(=O)N[C@@H](CCCNC(=N)N)C(=O)N[C@H](C(=O)N[C@@H](CCC(N)=O)C(=O)N[C@H](C(=O)N[C@@H](CC(C)C)C(=O)N[C@@H](CC(N)=O)C(=O)N[C@@H](CCC(N)=O)C(=O)N[C@@H](CCC(=O)O)C(=O)N[C@@H](Cc2c[nH]c3ccccc23)C(=O)N[C@@H](CCCCN)C(=O)N[C@@H](CCC(N)=O)C(=O)N[C@@H](CCCNC(=N)N)C(=O)N[C@@H](CCCNC(=N)N)C(=O)N[C@H](C(=O)N[C@@H](CCC(N)=O)C(=O)N2CCC[C@H]2C(=O)N[C@H](C(=O)O)C(C)C)[C@@H](C)CC)[C@@H](C)CC)[C@@H](C)O)NC(=O)[C@H](CC(C)C)NC1=O (stereo not given in full) (Ac-FSSNR[S5]K[ξIle]L[S5]RTQILNQEWKQRRIQPV-OH; staple (E) 6-10)
Kd [5]: 0.32 nM
Activity [6]: 0.11
Activity [7]: 0.74

SMILES: Cc1ncccc1-c1cnc(NCc2c(F)ccc3c2CCO3)[nH]c1=O
ΔTm [8]: 6 °C

SMILES: COC(=O)C1=C(C)NC(C)=C(C(=O)OC)C1c1ccccc1[N+](=O)[O-] [NIFEDIPINE]
IC50 [1]: 343 µM

SMILES: CS(=O)(=O)c1ccc(-c2cnc(NCc3ccco3)n3cnnc23)cc1
IC50 [11]: 23.4 nM
Kd [12]: 82 nM
Activity [13]: 1.67
Activity [14]: 2.17
inhibition in vivo at 40 mg/kg [15]: 100%
ΔTm [16]: > 8 °C

Continued, values first:

bioavailability [9]: 0.2%
SMILES: CC[C@@H](C)n1cc(C)c2c(C(=O)NCc3c(C)cc(C)[nH]c3=O)cc(-c3ccc(N4CCNCC4)nc3)cc21

IC50 [10]: 54.9 µM
SMILES: Cc1sc(NC(=O)CCCCC(=O)Nc2sc(C)c(C)c2C(N)=O)c(C(N)=O)c1C

IC50 [10]: 63.9 µM
SMILES: Cc1ccc(C(C2=C(O)CC(C)(C)CC2=O)C2C(=O)CC(C)(C)CC2=O)s1 (stereo not given)

IC50 [1]: 15.5 µM
SMILES: CN1CCc2cccc3c2[C@H]1Cc1ccc(O)c(O)c1-3 [APOMORPHINE]

IC50 [17]: 8.76 µM
SMILES: Cc1cc(C)n(-c2cc(N3CCCc4ccccc43)ccc2[N+](=O)[O-])n1
